From patent publication US20260306644A1, “ANTIBODY RECRUITING MOLECULES FOR THE TREATMENT OF CORONAVIRUS DISEASE-19” (priority 2023, published 2026)
Where “and” joins values, the source holds several entries; their conditions need not be identical. Equal entries are not always repeated. Positions of bridges follow the written chain, without caps; N, C: chain ends. Residues, ends and D or L forms follow the SMILES beside them.

Target: T1, SARS-CoV-2 Spike A (wild-type) (Severe acute respiratory syndrome coronavirus 2, UniProt P0DTC2)
T1 construct: purchased Meso Scale Diagnostics, LLC V-PLEX SARS-CoV-2 Panel 13 (ACE2) Kit / Panel 23 (ACE2) Kit
Assay: MSD ACE2 competition assay (inhibition of Spike binding with ACE2, ECL), A (wild-type)
Settings: IC50 Wild Type, Wild Type Spike

Structure (SMILES)	IC50
CC[C@H](C)[C@H](NC(C)=O)C(=O)N[C@@H](CC(C)C)C(=O)N[C@@H](CCC(N)=O)C(=O)N[C@@H](CCCCN)C(=O)N[C@H](C(=O)N[C@@H](Cc1ccc(O)cc1)C(=O)N[C@@H](CCC(=O)O)C(=O)N[C@H](C(=O)N[C@@H](CCSC)C(=O)N[C@@H](CCCNC(=N)N)C(=O)N[C@@H](CC(C)C)C(=O)N[C@@H](CC(C)C)C(=O)N[C@@H](CC(=O)O)C(=O)N[C@@H](CCC(=O)O)C(=O)N[C@@H](CC(C)C)C(=O)NCC(=O)N[C@@H](Cc1c[nH]cn1)C(=O)N[C@@H](C)C(=O)N[C@@H](CCC(=O)O)C(=O)N[C@@H](C)C(=O)N[C@@H](CO)C(=O)N[C@@H](CCSC)C(=O)N[C@@H](CCCNC(=N)N)C(=O)N[C@H](C(=O)N[C@@H](CO)C(=O)N[C@@H](CC(=O)O)C(=O)N[C@@H](CC(C)C)C(=O)N[C@H](C(=O)N[C@@H](Cc1ccc(O)cc1)C(=O)N[C@@H](CCC(=O)O)C(=O)N[C@@H](Cc1ccccc1)C(=O)N[C@@H](CCSC)C(=O)N[C@@H](CCCCN)C(=O)N[C@@H](CCCCN)C(=O)NCC(=O)NCCOCCOCCOCCOCCOCCOCCOCCOCCC(=O)NCCOCCOCCOCCOCCOCCOCCOCCOCCC(=O)N[C@@H](CC(=O)O)C(=O)N[C@H]1CSSC[C@@H](C(=O)N[C@H](C(N)=O)[C@@H](C)O)NC(=O)[C@H](Cc2c[nH]c3ccccc23)NC(=O)[C@H](C(C)C)NC(=O)[C@H](CC(C)C)NC(=O)[C@H](CCC(=O)O)NC(=O)CNC(=O)[C@H](CC(C)C)NC(=O)[C@H](Cc2c[nH]cn2)NC(=O)[C@H](Cc2c[nH]c3ccccc23)NC(=O)[C@H](C)NC1=O)[C@@H](C)CC)C(C)C)[C@@H](C)CC)[C@@H](C)CC [Compound 155]	7.67 nM
CC[C@H](C)[C@H](NC(C)=O)C(=O)N[C@@H](CC(C)C)C(=O)N[C@@H](CCC(N)=O)C(=O)N[C@@H](CCCCN)C(=O)N[C@H](C(=O)N[C@@H](Cc1ccc(O)cc1)C(=O)N[C@@H](CCC(=O)O)C(=O)N[C@H](C(=O)N[C@H]1CSSC[C@@H](C(=O)N[C@@H](CO)C(=O)N[C@@H](CC(=O)O)C(=O)N[C@@H](CC(C)C)C(=O)N[C@H](C(=O)N[C@@H](Cc2ccc(O)cc2)C(=O)N[C@@H](CCC(=O)O)C(=O)N[C@@H](Cc2ccccc2)C(=O)N[C@@H](CCSC)C(=O)N[C@@H](CCCCN)C(=O)N[C@@H](CCCCN)C(=O)NCC(=O)O)[C@@H](C)CC)NC(=O)[C@H](CCCNC(=N)N)NC(=O)[C@H](CCSC)NC(=O)[C@H](CO)NC(=O)[C@H](C)NC(=O)[C@H](CCC(=O)O)NC(=O)[C@H](C)NC(=O)[C@H](Cc2cnc[nH]2)NC(=O)CNC(=O)[C@H](CC(C)C)NC(=O)[C@H](CCC(=O)O)NC(=O)[C@H](CC(=O)O)NC(=O)[C@H](CC(C)C)NC(=O)[C@H](CC(C)C)NC(=O)[C@H](CCCNC(=N)N)NC1=O)[C@@H](C)CC)[C@@H](C)CC [Compound 135] (Ac-ILQKIYEICRLLDELGHAEASMRCSDLIYEFMKKG-OH; disulfide 9-24)	12.2 nM
CC[C@H](C)[C@H](NC(=O)[C@H](CC(C)C)NC(=O)[C@H](CC(=O)O)NC(=O)[C@H](CO)NC(=O)[C@@H](NC(=O)[C@H](CCCNC(=N)N)NC(=O)[C@H](CCSC)NC(=O)[C@H](CO)NC(=O)[C@H](C)NC(=O)[C@H](CCC(=O)O)NC(=O)[C@H](C)NC(=O)[C@H](Cc1c[nH]cn1)NC(=O)CNC(=O)[C@H](CC(C)C)NC(=O)[C@H](CCC(=O)O)NC(=O)[C@H](CC(=O)O)NC(=O)[C@H](CC(C)C)NC(=O)[C@H](CC(C)C)NC(=O)[C@H](CCCNC(=N)N)NC(=O)[C@H](CCSC)NC(=O)[C@@H](NC(=O)[C@H](CCC(=O)O)NC(=O)[C@H](Cc1ccc(O)cc1)NC(=O)[C@@H](NC(=O)[C@H](CCCCN)NC(=O)[C@H](CCC(N)=O)NC(=O)[C@H](CC(C)C)NC(=O)[C@@H](NC(=O)[C@H](Cc1c[nH]c2ccccc12)NC(=O)[C@H](CCC(=O)O)NC(=O)[C@H](CCCCN)NC(=O)[C@H](CC(=O)O)NC(C)=O)[C@@H](C)CC)[C@@H](C)CC)[C@@H](C)CC)C(C)C)C(=O)N[C@@H](Cc1ccc(O)cc1)C(=O)N[C@@H](CCC(=O)O)C(=O)N[C@@H](Cc1ccccc1)C(=O)N[C@@H](CCSC)C(=O)N[C@@H](CCCCN)C(=O)N[C@@H](CCCCN)C(=O)N[C@@H](CC(=O)O)C(=O)N[C@H]1CSSC[C@@H](C(=O)N[C@H](C(=O)O)[C@@H](C)O)NC(=O)[C@H](Cc2c[nH]c3ccccc23)NC(=O)[C@H](C(C)C)NC(=O)[C@H](CC(C)C)NC(=O)[C@H](CCC(=O)O)NC(=O)CNC(=O)[C@H](CC(C)C)NC(=O)[C@H](Cc2c[nH]cn2)NC(=O)[C@H](Cc2c[nH]c3ccccc23)NC(=O)[C@H](C)NC1=O [Compound 114]	40.7 nM
CC[C@H](C)[C@H](N)C(=O)N[C@@H](CC(C)C)C(=O)N[C@@H](CCC(N)=O)C(=O)N[C@@H](CCCCN)C(=O)N[C@H](C(=O)N[C@@H](Cc1ccc(O)cc1)C(=O)N[C@@H](CCC(=O)O)C(=O)N[C@H](C(=O)N[C@@H](CCSC)C(=O)N[C@@H](CCCNC(=N)N)C(=O)N[C@@H](CC(C)C)C(=O)N[C@H]1CSSC[C@@H](C(=O)N[C@@H](CCSC)C(=O)N[C@@H](CCCNC(=N)N)C(=O)N[C@H](C(=O)N[C@@H](CO)C(=O)N[C@@H](CC(=O)O)C(=O)N[C@@H](CC(C)C)C(=O)N[C@H](C(=O)N[C@@H](Cc2ccc(O)cc2)C(=O)N[C@@H](CCC(=O)O)C(=O)N[C@@H](Cc2ccccc2)C(=O)N[C@@H](CCSC)C(=O)N[C@@H](CCCCN)C(=O)N[C@@H](CCCCN)C(=O)NCC(N)=O)[C@@H](C)CC)C(C)C)NC(=O)[C@H](C)NC(=O)[C@H](CCC(=O)O)NC(=O)[C@H](C)NC(=O)[C@H](Cc2c[nH]cn2)NC(=O)CNC(=O)[C@H](CC(C)C)NC(=O)[C@H](CCC(=O)O)NC(=O)[C@H](CC(=O)O)NC1=O)[C@@H](C)CC)[C@@H](C)CC [Compound 179] (H-ILQKIYEIMRLCDELGHAEACMRVSDLIYEFMKKG-NH2; disulfide 12-21)	152 nM and 168 nM
CC[C@H](C)[C@H](NC(=O)[C@H](CC(C)C)NC(=O)[C@H](CC(=O)O)NC(=O)[C@H](CO)NC(=O)[C@@H]1CSSC[C@H](NC(=O)[C@@H](NC(=O)[C@H](CCC(=O)O)NC(=O)[C@H](Cc2ccc(O)cc2)NC(=O)[C@@H](NC(=O)[C@H](CCCCN)NC(=O)[C@H](CCC(N)=O)NC(=O)[C@H](CC(C)C)NC(=O)[C@@H](NC(=O)[C@H](Cc2c[nH]c3ccccc23)NC(=O)[C@H](CCC(=O)O)NC(=O)[C@H](CCCCN)NC(=O)[C@H](CC(=O)O)NC(C)=O)[C@@H](C)CC)[C@@H](C)CC)[C@@H](C)CC)C(=O)N[C@@H](CCCNC(=N)N)C(=O)N[C@@H](CC(C)C)C(=O)N[C@@H](CC(C)C)C(=O)N[C@@H](CC(=O)O)C(=O)N[C@@H](CCC(=O)O)C(=O)N[C@@H](CC(C)C)C(=O)NCC(=O)N[C@@H](Cc2cnc[nH]2)C(=O)N[C@@H](C)C(=O)N[C@@H](CCC(=O)O)C(=O)N[C@@H](C)C(=O)N[C@@H](CO)C(=O)N[C@@H](CCSC)C(=O)N[C@@H](CCCNC(=N)N)C(=O)N1)C(=O)N[C@@H](Cc1ccc(O)cc1)C(=O)N[C@@H](CCC(=O)O)C(=O)N[C@@H](Cc1ccccc1)C(=O)N[C@@H](CCSC)C(=O)N[C@@H](CCCCN)C(=O)N[C@@H](CCCCN)C(=O)NCC(=O)O [Compound 137] (Ac-DKEWILQKIYEICRLLDELGHAEASMRCSDLIYEFMKKG-OH; disulfide 13-28)	2.91 nM
